Data: US20100087516A1, “ANTIBACTERIAL MACROLACTIN A THAT BACILLUS POLYFERMENTICUS KJS-2 PRODUCED IN” (priority 2007, published 2010)
Values after ≈ are worked out from the molar mass of the structure shown. Read-outs that look alike come from different tables or passages of the source.

Legend:
[1] = test system: biosynthesis of cholesterol; details: cited from earlier work
[2] = test system: a variety of microorganisms and fungi; test: Spectrum of antibiotic activity (general statement); assay type: cell-based
[3] = Heat and pH stability; assay type: physicochemical
[4] = test system: VRE5; test: Bioassay at a gradient of concentration on TSB agar medium; assay type: cell-based, vancomycin-resistant enterococci; details: 10 μl of solution in 50% acetone
[5] = test system: Burkholderia cepacia; details: cited from earlier work
[6] = test system: Vibrio vulnificus; test: Bioassay of Macrolactin A on TSB agar medium; assay type: cell-based; details: 10 μl of solution in 50% acetone (2.5 mg/ml)
Method: (§1) The strains used for the experiment were Saccharomyces cerevisiae, Vibrio vulnificus, Micrococcus luteus and Streptococcus parauberis. Each strain, except Vibrio vulnificus, was inoculated and cultured in TSB medium at 200 rpm for 16 hours at 37° C., and then a 0.5 ml (approximately 28*10^9 cfu/ml) aliquot of the culture medium was spread over TSB agar medium. Vibrio vulnificus, was inoculated and cultured in TSB medium at 200 rpm for 16 hours at 25° C., which is its optimum growth conation, and then the amount of the culture medium was spread over the agar medium. The solvent required for the bioassay is a solvent, which can dissolve Macrolactin A, that has no toxicity against the strains used for the experiment.

[7] = test system: Saccharomyces cerevisiae; test: Bioassay of Macrolactin A on TSB agar medium; assay type: cell-based; details: 10 μl of solution in 50% acetone (2.5 mg/ml)
Method: as §1

[8] = test system: Micrococcus luteus; test: Bioassay of Macrolactin A on TSB agar medium; assay type: cell-based; details: 10 μl of solution in 50% acetone (2.5 mg/ml)
Method: as §1

[9] = test system: Streptococcus parauberis; test: Bioassay of Macrolactin A on TSB agar medium; assay type: cell-based; details: 10 μl of solution in 50% acetone (2.5 mg/ml)
Method: as §1

[10] = test system: Vancomycin-resistant enterococci; test: Inhibitory effect on VRE in liquid medium; assay type: cell-based; details: for average absorbance (OD), Macrolactin A addition group: Average of 11 VRE strains
Method: For the experiment with VRE, the strains were inoculated into a liquid medium upto a concentration of 1,000,000 cfu/mL and cultured either with (for strains to be tested) or without (for controls) Macrolactin A. […] […] After 4 hours of culture, the average absorbance of the control group was 0.76, while that of the group cultured with Macrolactin A was 0.19, showing significant difference between the two groups.

[11] = test system: vancomycin-resistant enterococci (VRE); details: cited from earlier work
[12] = test system: HIV; details: cited from earlier work
[13] = test system: 13 MRSA strains, clinically isolated; test: Minimal inhibitory concentration (MIC>90) in MH II medium; assay type: cell-based, methicillin-resistant Staphylococcus aureus
Method: The MIC (minimal inhibitory concentration) against VRE and MRSA was measured to test antibiotic activity of Macrolactin A produced by Bacillus polyfermenticus KJS-2, which is the strain of the present invention, against the two strains. The strains used for the experiment were 11 VRE strains and 13 MRSA strains, which were clinically isolated. Each strain used for the experiment was cultured in MH II medium at 200 rpm for 6 hours at 37° C., the absorbance of the medium measured at OD600nm using a UV detector, and then 1 ml aliquot of the medium was spread over MH II agar medium and incubated for 16 hours at 37° C. The number of colonies formed on the agar medium after 16 hours of incubation was counted. Each strain used for experiment was cultured in MH II medium at 200 rpm for 6 hours at 37° C., and the absorbance of the medium was measured at OD600nm using a UV detector. The number of cells were calculated based on the ratio of the number of colonies to the absorbance of the medium, and measured by the above process. Each culture medium was diluted to the final cell concentration of 0.25*10^7 cfu/ml and Macrolactin A was dissolved in the solvent DMSO, while ampicillin, teycoplanin, vancomycin and methillin were dissolved in water. To measure the MIC of Macrolactin A or of the four antibiotics, the mixture of the materials listed in Table 5 and Macrolactin A or the mixture of the materials listed in Table 6 and each of the four antibiotics, respectively in a 500 μl eppendorff tub, was incubated at 200 rpm for 16 hours at 37° C., and then absorbance was measured by a UV/Visible Light detector at 600 nm using a Fluorescence Multi-Detection Reader.

[14] = test system: Escherichia coli; test: Antibiotic activity test of HPLC fractions of the culture medium; assay type: cell-based
Method: (§2) In order to purify the antibiotic substance produced by strain Bacillus polyfermenticus KJS-2, the seed culture of the strain was diluted into 3 L of TSB medium (TSB agar: Tryptone 17 g, Soytone 3 g, Dextrose 2.5 g, NaCl 5 g, Dipotassium Phosphate 2.5 g, pH 6.8 to 72 to a final concentration of 4% and was cultured for 2.5 days (30° C., 200 rpm, 1 vvm, pH6.8). The culture medium was extracted with […] and analyzed by HPLC under the conditions using a solvent of Step 2 of Example 1, and each peak was fractionated as in FIG. 4. Each fraction was tested for antibiotic activity against Escherichia coli, Bacillus subtilis 168 and Vancomycin-resistant Enterococci. […] FIG. 5 below is the analysis of fraction 1 of FIG. 4 by LC/Mass under the same conditions of Step 2 of Example 1, and the purification was to a purity of 94.63%.

[15] = test system: Vancomycin-resistant Enterococci; test: as above; assay type: cell-based
Method: as §2

CC1CCC/C=C/C=C/C(O)CC(O)C/C=C\C=C\C(O)C/C=C/C=C\C(=O)O1 (centres unmarked) [Macrolactin A]
inhibitory effect on the biosynthesis of cholesterol [1]: inhibitory effect | spectrum of antibiotic activity [2]: broad spectrum of antibiotic activity | heat stability [3]: excellent heat stability | stability in weak acidic and neutral environments ([3]; weak acidic and neutral environments): very stable | concentration of solution that inhibits VRE5 on TSB agar medium [4]: above 1.25 mg/ml | antibiotic activity against Burkholderia cepacia [5]: antibiotic activity only against MRSA | antibiotic activity against Vibrio vulnificus [6]: excellent antibiotic activity | antibiotic activity against Saccharomyces cerevisiae [7]: excellent antibiotic activity | antibiotic activity against Micrococcus luteus [8]: excellent antibiotic activity | antibiotic activity against Streptococcus parauberis [9]: excellent antibiotic activity | average absorbance (OD), Macrolactin A addition group ([10]; culture 4 hours, 50 μg/mL): 0.19 OD | average absorbance (OD), Macrolactin A addition group ([10]; culture 6 hours, 50 μg/mL): 0.26 OD | OD, Macrolactin A addition group ([10]; VRE1, culture 4 hours, 50 μg/mL): 0.216 OD | OD, Macrolactin A addition group ([10]; VRE1, culture 6 hours, 50 μg/mL): 0.207 OD | OD, Macrolactin A addition group ([10]; VRE2, culture 4 hours, 50 μg/mL): 0.279 OD | OD, Macrolactin A addition group ([10]; VRE2, culture 6 hours, 50 μg/mL): 0.391 OD | OD, Macrolactin A addition group ([10]; VRE3, culture 4 hours, 50 μg/mL): 0.240 OD | OD, Macrolactin A addition group ([10]; VRE3, culture 6 hours, 50 μg/mL): 0.314 OD | OD, Macrolactin A addition group ([10]; VRE4, culture 4 hours, 50 μg/mL): 0.166 OD | OD, Macrolactin A addition group ([10]; VRE4, culture 6 hours, 50 μg/mL): 0.180 OD | OD, Macrolactin A addition group ([10]; VRE5, culture 4 hours, 50 μg/mL): 0.176 OD | OD, Macrolactin A addition group ([10]; VRE5, culture 6 hours, 50 μg/mL): 0.153 OD | OD, Macrolactin A addition group ([10]; VRE6, culture 4 hours, 50 μg/mL): 0.171 OD | OD, Macrolactin A addition group ([10]; VRE6, culture 6 hours, 50 μg/mL): 0.179 OD | OD, Macrolactin A addition group ([10]; VRE7, culture 4 hours, 50 μg/mL): 0.173 OD | OD, Macrolactin A addition group ([10]; VRE7, culture 6 hours, 50 μg/mL): 0.133 OD | OD, Macrolactin A addition group ([10]; VRE8, culture 4 hours, 50 μg/mL): 0.228 OD | OD, Macrolactin A addition group ([10]; VRE8, culture 6 hours, 50 μg/mL): 0.589 OD | growth of VRE8 and VRE11 in liquid medium ([10]; VRE8 and VRE11, 50 μg/mL, lower sensitivity than the other strains): notable growth retardation | OD, Macrolactin A addition group ([10]; VRE11, culture 4 hours, 50 μg/mL): 0.236 OD | OD, Macrolactin A addition group ([10]; VRE11, culture 6 hours, 50 μg/mL): 0.507 OD | OD, Macrolactin A addition group ([10]; VRE14, culture 4 hours, 50 μg/mL): 0.078 OD | OD, Macrolactin A addition group ([10]; VRE14, culture 6 hours, 50 μg/mL): 0.050 OD | OD, Macrolactin A addition group ([10]; VRE15, culture 4 hours, 50 μg/mL): 0.145 OD | OD, Macrolactin A addition group ([10]; VRE15, culture 6 hours, 50 μg/mL): 0.131 OD | growth of VRE strains in liquid medium ([10]; nine out of eleven strains tested, 50 μg/mL): remarkable growth inhibition | antibiotic activity against VRE [11]: antibiotic activity only against MRSA | antiviral activity against HIV [12]: antiviral activity | activity relative to teycoplanin (average MIC>90) ([13]; 13 MRSA strains): 5.3 times | average MIC>90 ([13]; Average of the 13 MRSA strains): 19.83 µg/mL | MIC>90 ([13]; MRSA1): 31.25 µg/mL (≈ 77.6 µM) | MIC>90 ([13]; MRSA2): 15.63 µg/mL (≈ 38.8 µM) | MIC>90 ([13]; MRSA3): 15.63 µg/mL (≈ 38.8 µM) | MIC>90 ([13]; MRSA4): 31.25 µg/mL (≈ 77.6 µM) | MIC>90 ([13]; MRSA5): 31.25 µg/mL (≈ 77.6 µM) | MIC>90 ([13]; MRSA6): 31.25 µg/mL (≈ 77.6 µM) | MIC>90 ([13]; MRSA7): 15.63 µg/mL (≈ 38.8 µM) | MIC>90 ([13]; MRSA8): 7.81 µg/mL (≈ 19.4 µM) | MIC>90 ([13]; MRSA8*): 15.63 µg/mL (≈ 38.8 µM) | MIC>90 ([13]; MRSA9): 15.63 µg/mL (≈ 38.8 µM) | MIC>90 ([13]; MRSA10): 15.63 µg/mL (≈ 38.8 µM) | MIC>90 ([13]; MRSA11): 15.63 µg/mL (≈ 38.8 µM) | MIC>90 ([13]; MRSA11*): 15.63 µg/mL (≈ 38.8 µM) | antibiotic activity against Escherichia coli [14]: excellent antibiotic activity | antibiotic activity against Escherichia coli ([14]; listed as fraction 1): had antibiotic activity | antibiotic activity against Vancomycin-resistant Enterococci [15]: showed antibiotic activity
